Drawing on the Kinase Knowledgebase extract (Sharma et al. 2016), this text covers IC50 for 24 compounds.

The term IC50 denotes the concentration that gives 50% inhibition.

EGFR (human), sequence (P00533 whole entry, looked up): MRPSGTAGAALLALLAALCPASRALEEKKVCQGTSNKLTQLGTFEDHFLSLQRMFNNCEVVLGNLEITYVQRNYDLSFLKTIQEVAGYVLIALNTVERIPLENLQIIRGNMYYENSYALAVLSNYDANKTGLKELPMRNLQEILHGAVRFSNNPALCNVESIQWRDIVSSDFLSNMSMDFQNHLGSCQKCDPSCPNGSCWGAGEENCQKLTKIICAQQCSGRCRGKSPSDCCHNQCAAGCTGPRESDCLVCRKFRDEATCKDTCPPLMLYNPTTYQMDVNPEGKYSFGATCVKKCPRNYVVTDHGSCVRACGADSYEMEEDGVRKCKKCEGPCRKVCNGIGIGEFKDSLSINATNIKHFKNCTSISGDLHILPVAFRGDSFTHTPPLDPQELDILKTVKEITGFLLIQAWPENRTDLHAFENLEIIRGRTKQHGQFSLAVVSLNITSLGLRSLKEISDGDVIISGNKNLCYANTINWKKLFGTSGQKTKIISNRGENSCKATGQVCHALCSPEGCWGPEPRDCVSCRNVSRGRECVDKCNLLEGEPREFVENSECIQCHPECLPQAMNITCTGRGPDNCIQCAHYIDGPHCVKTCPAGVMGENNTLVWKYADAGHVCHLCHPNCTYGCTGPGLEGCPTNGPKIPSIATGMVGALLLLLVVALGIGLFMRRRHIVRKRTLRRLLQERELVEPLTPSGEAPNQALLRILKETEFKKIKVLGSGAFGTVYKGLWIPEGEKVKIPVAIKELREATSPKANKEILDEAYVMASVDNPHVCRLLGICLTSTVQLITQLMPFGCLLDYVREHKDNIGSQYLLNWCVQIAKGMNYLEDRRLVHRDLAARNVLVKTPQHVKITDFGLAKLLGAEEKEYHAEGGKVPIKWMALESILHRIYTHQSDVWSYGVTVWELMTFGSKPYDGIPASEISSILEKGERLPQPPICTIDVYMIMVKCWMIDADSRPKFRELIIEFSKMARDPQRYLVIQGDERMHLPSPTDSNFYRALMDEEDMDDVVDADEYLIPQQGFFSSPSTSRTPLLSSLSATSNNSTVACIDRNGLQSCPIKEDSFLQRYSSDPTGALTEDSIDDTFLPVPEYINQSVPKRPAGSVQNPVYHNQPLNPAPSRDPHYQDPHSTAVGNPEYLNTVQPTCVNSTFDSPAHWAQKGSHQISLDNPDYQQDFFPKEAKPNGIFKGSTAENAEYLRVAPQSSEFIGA

The assay has as its target EGFR (human) (UniProt P00533).
`Cc1[nH]c(/C=C2\C(=O)Nc3cccc(-c4cccc(F)c4)c32)c(C)c1C(=O)NCCn1ccnn1` displayed an IC50 of more than 20 µM.
Consider `Cc1cc(C(=O)NCCn2ccnn2)c(/C=C2\C(=O)Nc3cccc(-c4ccccc4F)c32)[nH]1`, for which the half-maximal inhibitory concentration (IC50) was more than 20 µM.
Compound `CCN(CC)CCNC(=O)c1c(C)[nH]c(/C=C2\C(=O)Nc3cccc(-c4ccccc4)c32)c1C` gave an IC50 of more than 20 µM.
In turn, `CCN(CC)CCNC(=O)c1c(C)[nH]c(/C=C2\C(=O)Nc3cccc(-c4cccc(OC)c4)c32)c1C` yielded an IC50 of more than 20 µM.
`Cc1cc(C(=O)NCCn2ccnn2)c(/C=C2\C(=O)Nc3cccc(-c4cccc(Cl)c4)c32)[nH]1` registered a half-maximal inhibitory concentration (IC50) of more than 20 µM.
In the case of `Cc1cc(C(=O)NCCN2CCCC2)c(/C=C2\C(=O)Nc3cccc(-c4ccc(Br)cc4)c32)[nH]1` it was more than 20 µM; in that of `COc1cccc(-c2cccc3c2/C(=C/c2[nH]c(C)c(C(=O)NCCn4ccnn4)c2C)C(=O)N3)c1`, more than 20 µM.
To `Cc1cc(C(=O)N2CC[C@@H](N(C)C)C2)c(/C=C2\C(=O)Nc3cccc(-c4ccc(Cl)cc4)c32)[nH]1` belongs more than 20 µM; to `CCN(CC)CCNC(=O)c1c[nH]c(/C=C2\C(=O)Nc3cccc(-c4ccc(Br)cc4)c32)c1C`, more than 20 µM.
The compound `Cc1[nH]c(/C=C2\C(=O)Nc3cccc(-c4cccc(C(F)(F)F)c4)c32)c(C)c1C(=O)N1CCN(C)CC1` returned a concentration for half-maximal inhibition (IC50) of more than 20 µM.
With `Cc1cc(C(=O)NCCN2CCCC2)c(/C=C2\C(=O)Nc3cccc(-c4ccc(F)c(Cl)c4)c32)[nH]1`, the 50% inhibitory concentration (IC50) is more than 20 µM.
`Cc1[nH]c(/C=C2\C(=O)Nc3cccc(-c4ccc(Br)cc4)c32)c(C)c1C(=O)N1C[C@@H](C)N[C@@H](C)C1`: the IC50 was more than 20 µM.
In the case of `COc1cccc(-c2cccc3c2/C(=C/c2[nH]c(C)c(C(=O)NCCN(C(C)C)C(C)C)c2C)C(=O)N3)c1` it was more than 20 µM.
Turning to `COc1ccc(-c2cccc3c2/C(=C/c2[nH]c(C)c(C(=O)N4C[C@@H](C)N[C@@H](C)C4)c2C)C(=O)N3)cc1`, the half-maximal inhibitory concentration (IC50) is more than 20 µM.
Consider `Cc1cc(C(=O)N2C[C@@H](C)N[C@@H](C)C2)c(/C=C2\C(=O)Nc3cccc(-c4cccc(Cl)c4)c32)[nH]1`, for which the half-maximal inhibitory concentration (IC50) is more than 20 µM.
The compound `CCN(CC)CCNC(=O)c1c(C)[nH]c(/C=C2\C(=O)Nc3cccc(-c4ccc(OC(F)(F)F)cc4)c32)c1C` came in with a half-maximal inhibitory concentration (IC50) of more than 20 µM.
In the case of `Cc1[nH]c(/C=C2\C(=O)Nc3cccc(-c4ccc(Cl)cc4)c32)c(C)c1C(=O)N1CCN(C)CC1` it was more than 20 µM; in that of `Cc1[nH]c(/C=C2\C(=O)Nc3cccc(-c4ccccc4F)c32)c(C)c1C(=O)N1CCN(C)CC1`, more than 20 µM.
Regarding `COc1ccc(-c2cccc3c2/C(=C/c2[nH]c(C)cc2C(=O)NCCN2CCCC2)C(=O)N3)cc1`, the IC50 is more than 20 µM.
To `Cc1cc(C(=O)N2CC[C@H](N(C)C)C2)c(/C=C2\C(=O)Nc3cccc(-c4ccc(F)cc4)c32)[nH]1` belongs more than 20 µM; to `Cc1[nH]c(/C=C2\C(=O)Nc3cccc(-c4ccc(Br)cc4)c32)c(C)c1C(=O)N1CCN(C)CC1`, more than 20 µM.
Regarding `Cc1[nH]c(/C=C2\C(=O)Nc3cccc(-c4ccc(F)cc4)c32)c(C)c1C(=O)N1CCN(C)CC1`, the 50% inhibitory concentration (IC50) was more than 20 µM.
On to `Cc1cc(C(=O)N2CC[C@H](N(C)C)C2)c(/C=C2\C(=O)Nc3cccc(-c4cccc(Cl)c4)c32)[nH]1`, for which the IC50 is more than 20 µM.
Compound `Cc1cc(C(=O)N2C[C@@H](C)N[C@@H](C)C2)c(/C=C2\C(=O)Nc3cccc(-c4ccc(Cl)cc4)c32)[nH]1` registered an IC50 of more than 20 µM.
